# Laboratory results from patent US20240285635A1, “USE OF PYRROLOPYRIMIDINE COMPOUND AND PHARMACEUTICAL COMPOSITION THEREOF FOR TREATING CHRONIC GRAFT VERSUS HOST DISEASE” (CHIA TAI TIANQING PHARMACEUTICAL GROUP CO., LTD., priority 2021, published 2024).
# Values joined by “and” are separate entries in the source; they are usually repeats but may differ in a detail not shown here. Equal values may be shown once. “Also recorded” adds a separate entry of the source.
# System: glucocorticoid-refractory/dependent moderate and severe cGVHD subjects
# Test: Clinical study of tablets of the compound of formula I in glucocorticoid-refractory/dependent moderate and severe cGVHD subjects
# Assay type: in vivo, human
# Parameters: key to C1 organ score and efficacy: efficacy / C3 organ score and efficacy: efficacy / C6 organ score and efficacy: efficacy / C9 organ score and efficacy: efficacy / C12 organ score and efficacy: efficacy: Complete response (CR): all reversible clinical symptoms of cGVHD were completely alleviated; Partial response (PR): there was improvement in at least one organ or site, but no improvement in all other organs or sites; Stable disease (SD): cGVHD clinical performance was not worsened compared to baseline; Disease progression (PD): any one organ or site was worsened
# Method: As used herein, 2014 NIH cGVHD meeting consensus criteria was used for clinical diagnosis, disease grading, and evaluation of disease status or effectiveness.
# As used herein, the severity of adverse events was determined using the NCI-CTC AE 5.0 criteria.
# The subjects of the study were glucocorticoid-refractory/dependent moderate and severe cGVHD subjects. The safety and the tolerability of the tablets of the compound of formula I in the glucocorticoid-refractory/dependent moderate and severe cGVHD subjects were evaluated, and the efficacy and the safety of the tablets of the compound of formula I in the glucocorticoid-refractory/dependent moderate and severe cGVHD subjects were further evaluated.
# Method of administration: orally administered twice daily at fasting, with 28 consecutive days of administration as one treatment cycle.
# Drug: the tablets of the compound of formula I with 5 mg or 20 mg of the active ingredient, the compound of formula I being its stereoisomer, a compound of formula II
# During the study, the investigator would evaluate the cGVHD activity through NIH consensus on cGVHD to define the response effect and make a record accordingly.
# Complete response (CR): all reversible clinical symptoms of cGVHD were completely alleviated. Irreversible clinical manifestations would be defined by NIH consensus criteria.
# Partial response (PR): there was improvement in at least one organ or site, but no improvement in all other organs or sites.
# Stable disease (SD): cGVHD clinical performance was not worsened compared to baseline.
# Disease progression (PD): any one organ or site was worsened. In addition, the emergence of new clinical manifestations of cGVHD was also counted as progression.
# Objective response rate (ORR): refers to the percentage of subjects in complete response (CR) or partial response (PR) as determined by the investigator according to NIH cGVHD response assessment.
# Best objective response rate (ORR): refers to the percentage of subjects whose best response was complete response (CR) or partial response (PR) as determined by the investigator according to NIH cGVHD response assessment.
# [1] = 10 mg bid oral, cycle C1, individual subjects
# [2] = 10 mg bid oral, cycle C1, individual subjects 1-4
# [3] = 10 mg bid oral, cycle C3, individual subjects
# [4] = 10 mg bid oral, cycle C3, individual subjects 1-4
# [5] = 10 mg bid oral, cycle C6, individual subjects
# [6] = 10 mg bid oral, cycle C6, individual subjects 1-4
# [7] = 10 mg bid oral, cycle C9, individual subjects
# [8] = 10 mg bid oral, cycle C9, individual subjects 1-4
# [9] = 10 mg bid oral, cycle C12, individual subjects
# [10] = 10 mg bid oral, cycle C12, individual subjects 1-2
# [11] = 15 mg bid oral, cycle C1, individual subjects
# [12] = 15 mg bid oral, cycle C1, individual subjects 5-8
# [13] = 15 mg bid oral, cycle C3, individual subjects
# [14] = 15 mg bid oral, cycle C3, individual subjects 5-8
# [15] = 15 mg bid oral, cycle C6, individual subjects
# [16] = 15 mg bid oral, cycle C6, individual subjects 5-8
# [17] = 15 mg bid oral, cycle C9, subject 5
# [18] = of the patients evaluated in Table 2, 10 or 15 mg bid
smiles,measurement,setting,value
N#CC[C@H](C1CCCC1)n1cc(-c2ncnc3[nH]ccc23)c(N)n1 [compound of formula I],C1 organ score: esophagus,[1],1 point for points
same,C1 organ score: eye,[1],"skin, 1 point points (2×) and 1 point for eye, points (2×)"
same,C1 organ score: joint,[1],1 point for points and 1 points
same,C1 organ score: lung,[1],3 points for (2×) and 0 points for
same,"C1 organ score: lung, percentage in parentheses",[1],"lung (34.4%), and lung (81.8%), and 25%"
same,C1 organ score: oral cavity,[1],1 point for points
same,C1 organ score: skin,[1],1 point for points and 3 points for
same,C1 organ score: upper digestive tract,[1],1 point for points
same,C1 organ score and efficacy: comprehensive score,[2],score 6;; also recorded: score 1;; also recorded: score 2;
same,C1 organ score and efficacy: efficacy,[2],efficacy: PR
same,C3 organ score: esophagus,[3],1 point for points
same,C3 organ score: eye,[3],"1 point for eye, points"
same,C3 organ score: joint,[3],1 point for points and 1 points
same,C3 organ score: joint fascia,[3],2 points for
same,C3 organ score: lung,[3],0 points for
same,"C3 organ score: lung, percentage in parentheses",[3],"lung (31%), and lung (81.0%), and 28.1%"
same,C3 organ score: skin,[3],1 point for points
same,C3 organ score: upper digestive tract,[3],0 points for
same,C3 organ score and efficacy: comprehensive score,[4],score 5;; also recorded: score 1;
same,C3 organ score and efficacy: efficacy,[4],efficacy: PR
same,C6 organ score: esophagus,[5],1 point for points
same,C6 organ score: eye,[5],"1 point for eye, points"
same,C6 organ score: joint,[5],1 point for points and 1 points
same,C6 organ score: joint fascia,[5],2 points for
same,C6 organ score: lung,[5],3 points for (2×) and 0 points for
same,"C6 organ score: lung, percentage in parentheses",[5],"lung (33%), and lung (80%), and 25.0%"
same,C6 organ score: skin,[5],1 point for points and 2 points for
same,C6 organ score: upper digestive tract,[5],0 points for
same,C6 organ score and efficacy: comprehensive score,[6],score 5;; also recorded: score 1;
same,C6 organ score and efficacy: efficacy,[6],efficacy: PR
same,C9 organ score: esophagus,[7],1 point for points and 0 points for
same,C9 organ score: eye,[7],"skin, 0 points (2×) and 1 point for eye, points (2×)"
same,C9 organ score: joint,[7],1 point for points and 1 points
same,C9 organ score: lung,[7],3 points for (2×) and 0 points for
same,"C9 organ score: lung, percentage in parentheses",[7],"lung (35.1%), and 26.6%"
same,C9 organ score: skin,[7],0 points for
same,C9 organ score: upper digestive tract,[7],0 points for
same,C9 organ score and efficacy: comprehensive score,[8],score 5;; also recorded: score 0;; also recorded: score 1;
same,C9 organ score and efficacy: efficacy,[8],efficacy: PR; also recorded: efficacy: CR
same,C12 organ score: esophagus,[9],1 point for points
same,C12 organ score: eye,[9],"skin, 0 points"
same,C12 organ score: joint fascia,[9],2 points for
same,C12 organ score: lung,[9],3 points for
same,"C12 organ score: lung, percentage in parentheses",[9],"lung (35.1%),"
same,C12 organ score: skin,[9],0 points for
same,C12 organ score: upper digestive tract,[9],0 points for
same,C12 organ score and efficacy: comprehensive score,[10],score 5;; also recorded: score 0;
same,C12 organ score and efficacy: efficacy,[10],efficacy: PR; also recorded: efficacy: CR
same,C1 organ score: esophagus,[11],0 points for
same,C1 organ score: eye,[11],"skin, 1 point points; also recorded: skin, 2 points"
same,C1 organ score: joint fascia,[11],1 points and 1 point for points
same,C1 organ score: lower digestive tract,[11],1 point for points
same,C1 organ score: lung,[11],"tract, 3 points and 3 points for"
same,"C1 organ score: lung, percentage in parentheses",[11],"20.5% and lung (28.7%), and lung (55%),"
same,C1 organ score: skin,[11],1 point for points and 3 points for
same,C1 organ score and efficacy: comprehensive score,[12],score 8;; also recorded: score 6;; also recorded: score 3;; also recorded: score 7;
same,C1 organ score and efficacy: efficacy,[12],efficacy: PR; also recorded: efficacy: SD
same,C3 organ score: esophagus,[13],0 points for
same,C3 organ score: joint fascia,[13],1 points and 1 point for points and 2 points for
same,C3 organ score: lower digestive tract,[13],1 point for points
same,C3 organ score: lung,[13],"tract, 3 points"
same,"C3 organ score: lung, percentage in parentheses",[13],"17% and lung (27.8%), and lung (55%),"
same,C3 organ score: skin,[13],1 point for points
same,C3 organ score and efficacy: comprehensive score,[14],score 8;; also recorded: score 5;; also recorded: score 2;; also recorded: score 7;
same,C3 organ score and efficacy: efficacy,[14],efficacy: PR; also recorded: efficacy: SD
same,C6 organ score: esophagus,[15],0 points for and 1 point for points
same,C6 organ score: joint fascia,[15],1 points and 0 points for and 2 points for
same,C6 organ score: lower digestive tract,[15],1 point for points
same,C6 organ score: lung,[15],"tract, 3 points and 3 points for and 2 points for"
same,"C6 organ score: lung, percentage in parentheses",[15],"15.9% and lung (28.4%), and lung (52.7%),"
same,C6 organ score: skin,[15],2 points for (2×) and 1 point for points (2×)
same,C6 organ score and efficacy: comprehensive score,[16],score 8;; also recorded: score 4;; also recorded: score 2;; also recorded: score 6;
same,C6 organ score and efficacy: efficacy,[16],efficacy: PR
same,C9 organ score and efficacy: comprehensive score,[17],score 6;
same,C9 organ score and efficacy: efficacy,[17],efficacy: PR
same,C9 organ score: eye,[17],"skin, 2 points"
same,C9 organ score: joint fascia,[17],0 points
same,C9 organ score: lower digestive tract,[17],0 points for
same,C9 organ score: lung,[17],"tract, 3 points"
same,"C9 organ score: lung, percentage in parentheses",[17],17.6%
same,C9 organ score: skin,[17],0 points for
same,patients in complete response (CR),[18],1 patient
same,patients in partial response (PR),[18],7 patients
same,clinical benefit in the treatment of chronic graft-versus-host disease,patients evaluated in Table 2,clinical benefits
same,tolerability and safety,"tablets, cGVHD subjects",good tolerability and safety
